Assay results as given in patent US20240173440A1, “HIGH PURITY COPPER RADIOPHARMACEUTICAL COMPOSITIONS AND DIAGNOSTIC AND THERAPEUTIC USES THEREOF” (Nuclidium AG, priority 2022, published 2024).
Like-named read-outs stand apart in the source and are kept apart here. Each block holds one molecule with its values, some of them ahead of it.

What was measured:
[1] = Lipophilicity, log D by shake-flask method (1-octanol/PBS pH 7.4); format: physicochemical; settings: Table 17, mean ± SD
Experimental: The radiotracer (1 μM) was added to a 50:50 pre-saturated mixture of 1-octanol and phosphate buffered saline (PBSpH 7.4). The solution was vortexed for 30 min and then centrifuged at 3,000 rpm to achieve a phase separation. Aliquots from each phase were collected and measured in a gamma-counter. The distribution coefficient was calculated as the average of the logarithmic values of the ratio between the radioactivity in the organic and the PBS phase.
Table 17. Lipophilicity expressed as the log distribution coefficient D (log D(Octanol/PBS pH7.4)) of ^61Cu-radiotracers versus ^68Ga-radiotracers (reference radiotracers).
In a pre-lubricated Eppendorf tube, a pre-saturated mixture of 500 μL of 1-octanol and 500 μL of PBS pH 7.4 (phosphate-buffered saline) were added. An aliquot of […] in 10 μL of the radioligand was added to this mixture, shaken for 30 min, and then centrifuged at 3000 rcf for 10 min to achieve phase separation. Aliquots of 100 μL were removed from the 1-octanol and from the PBS phases, and the activity was measured in a […]. The partition coefficient was calculated as the average log ratio value of the radioactivity in the organic fraction and PBS fraction.

[2] = system: LNCaP xenografts; test: Quantitative biodistribution in LNCaP xenografted mice; format: in vivo; settings: for Biodistribution Adrenal / Biodistribution Blood / Biodistribution Bone / Biodistribution Heart / Biodistribution Intestine / Biodistribution Kidney / Biodistribution LNCaP-tumor / Biodistribution Liver / Biodistribution Lung / Biodistribution Muscle / Biodistribution Pancreas / Biodistribution Salivary gland / Biodistribution Spleen / Biodistribution Stomach / Ratio Tumor/Blood / Ratio Tumor/Kidney / Ratio Tumor/Liver / Ratio Tumor/Muscles: LNCap xenograft mice
[3] = Pharmacokinetics (biodistribution 1-24 h) in non-tumor bearing mice; format: in vivo; settings: for tissue uptake at 1 h / tissue uptake at 4 h / tissue uptake at 12 h / tissue uptake at 24 h: female, BALB/c, mouse, 200 umol, total radioactivity; for tissue uptake at 1 h: 1 hour after injection; for tissue uptake at 1 h / tissue uptake at 4 h: ^61Cu; for tissue uptake at 4 h: 4 hours after injection; for tissue uptake at 12 h: 12 hours after injection; for tissue uptake at 12 h / tissue uptake at 24 h: ^64Cu; for tissue uptake at 24 h: 24 hours after injection
Experimental: The biodistribution at the investigate time points was performed as described in the Example 9. The data were combined with the results obtained from the groups of xenografts at 1 hour and 4 hours p.i., as the biodistribution in nude mice was the same as in the healthy mice. The results were expressed as described in the Example 10.

[4] = in vivo; settings: athymic nude Foxn1+Foxn1+, mouse, iv, 200 umol, total radioactivity
Experimental: The tumors were allowed to grow for 1-3 weeks before commencement of the experiments.
The mice were randomly distributed in groups and euthanized at 1 and at 4 hours post-injection. The organs of interest were collected, rinsed, blotted, weighed and counted in a gamma counter. The results are expressed as percentage of injected activity per gram (% IA/g), representing the mean±standard deviation of n=4-8 mice per group and they were obtained by extrapolation from counts of an aliquot taken from the injected solution as standard.
The mice were randomly distributed in groups, injected with the radiotracer under investigation and euthanized at 1 and at 4 hours post-injection of the radiotracers under investigation. The organs of interest were collected, rinsed, blotted, weighed and counted in a gamma counter. The results are expressed as percentage of injected activity per gram (% IA/g), representing the mean±standard deviation of all mice per group and they were obtained by extrapolation from counts of an aliquot taken from the injected solution as standard.
The mice were randomly distributed in groups and euthanized at 4 hours post-injection. The organs of interest were collected, rinsed, blotted, weighed, and their respective radioactivity was counted in a gamma counter.

[5] = adrenal, read-out: Biodistribution Adrenal
[6] = blood, read-out: Biodistribution Blood
[7] = femur, read-out: Biodistribution Femur
[8] = heart, read-out: Biodistribution Heart
[9] = intestine, read-out: Biodistribution Intestine
[10] = kidneys, read-out: Biodistribution Kidneys
[11] = liver, read-out: Biodistribution Liver
[12] = lung, read-out: Biodistribution Lung
[13] = muscle, read-out: Biodistribution Muscles
[14] = pancreas, read-out: Biodistribution Pancreas
[15] = pituitary, read-out: Biodistribution Pituitary
[16] = spleen, read-out: Biodistribution Spleen
[17] = stomach, read-out: Biodistribution Stomach

logD ([1]; pH 7.4, shake-flask, read-out: log D(O/PBS pH 7.4)): -2.48 ± 0.3
Compound: C[C@@H](O)[C@@H]1NC(=O)[C@H](CCCCN)NC(=O)[C@@H](Cc2c[nH]c3ccccc23)NC(=O)[C@H](Cc2ccc(O)cc2)NC(=O)[C@@H](NC(=O)[C@@H](Cc2ccccc2)NC(=O)CCC(C(=O)O)N2CCN(CC(=O)O)CCN(CC(=O)O)CC2)CSSC[C@@H](C(=O)N[C@H](CO)[C@@H](C)O)NC1=O (single isomer, unassigned) [[^68Ga]Ga-NODAGA-TOC, metal not drawn]

Compound: O=C(O)CC[C@H](NC(=O)N[C@@H](CCCCNC(=O)[C@H](Cc1ccc2ccccc2c1)NC(=O)c1ccc(CNC(=O)[C@H](CCC(=O)O)NC(=O)[C@H](CCC(=O)O)NC(=O)c2ccc([18F])nc2)cc1)C(=O)O)C(=O)O [[^18F]PSMA-1007]
tumor uptake ([2]; 4h p.i., LNCaP xenograft mice, comparison with reference radiotracer, p=0.0145): 6.28±2.19 % IA/g | Biodistribution Adrenal ([2]; 1 h after injection): 7.18 ± 2.20 % IA/g | Biodistribution Blood ([2]; 1 h after injection): 0.41 ± 0.11 % IA/g | Biodistribution Bone ([2]; 1 h after injection): 0.94 ± 0.13 % IA/g | Biodistribution Heart ([2]; 1 h after injection): 1.25 ± 0.29 % IA/g | Biodistribution Intestine ([2]; 1 h after injection): 1.04 ± 0.33 % IA/g | Biodistribution Kidney ([2]; 1 h after injection): 100 ± 17 % IA/g | Biodistribution LNCaP-tumor ([2]; 1 h after injection): 9.70 ± 2.57 % IA/g | Biodistribution Liver ([2]; 1 h after injection): 0.93 ± 0.26 % IA/g | Biodistribution Lung ([2]; 1 h after injection): 2.08 ± 0.24 % IA/g | Biodistribution Muscle ([2]; 1 h after injection): 0.53 ± 0.09 % IA/g | Biodistribution Pancreas ([2]; 1 h after injection): 1.32 ± 0.58 % IA/g | Biodistribution Salivary gland ([2]; 1 h after injection): 2.54 ± 0.72 % IA/g | Biodistribution Spleen ([2]; 1 h after injection): 11.0 ± 1.1 % IA/g | Biodistribution Stomach ([2]; 1 h after injection): 0.75 ± 0.15 % IA/g | Ratio Tumor/Blood ([2]; 1 h after injection): 25.8 ± 11.5 | Ratio Tumor/Kidney ([2]; 1 h after injection): 0.10 ± 0.03 | Ratio Tumor/Liver ([2]; 1 h after injection): 11.3 ± 4.5 | Ratio Tumor/Muscles ([2]; 1 h after injection): 19.2 ± 6.5 | Biodistribution Adrenal ([2]; 4 h after injection): 8.03 ± 2.66 % IA/g | Biodistribution Blood ([2]; 4 h after injection): 0.17 ± 0.04 % IA/g | Biodistribution Bone ([2]; 4 h after injection): 0.62 ± 0.11 % IA/g | Biodistribution Heart ([2]; 4 h after injection): 0.53 ± 0.23 % IA/g | Biodistribution Intestine ([2]; 4 h after injection): 0.43 ± 0.22 % IA/g | Biodistribution Kidney ([2]; 4 h after injection): 132 ± 9 % IA/g | Biodistribution LNCaP-tumor ([2]; 4 h after injection): 6.28 ± 2.19 % IA/g | Biodistribution Liver ([2]; 4 h after injection): 0.32 ± 0.16 % IA/g | Biodistribution Lung ([2]; 4 h after injection): 1.61 ± 0.58 % IA/g | Biodistribution Muscle ([2]; 4 h after injection): 0.27 ± 0.11 % IA/g | Biodistribution Pancreas ([2]; 4 h after injection): 0.80 ± 0.32 % IA/g | Biodistribution Salivary gland ([2]; 4 h after injection): 1.62 ± 0.43 % IA/g | Biodistribution Spleen ([2]; 4 h after injection): 8.33 ± 2.11 % IA/g | Biodistribution Stomach ([2]; 4 h after injection): 0.47 ± 0.16 % IA/g | Ratio Tumor/Blood ([2]; 4 h after injection): 42.7 ± 16.4 | Ratio Tumor/Kidney ([2]; 4 h after injection): 0.04 ± 0.01 | Ratio Tumor/Liver ([2]; 4 h after injection): 18.4 ± 8.5 | Ratio Tumor/Muscles ([2]; 4 h after injection): 20.1 ± 2.5 | log D(O/PBS pH 7.4) ([1]; shake-flask): −3.02 ± 0.11

tissue uptake at 1 h [3, 5]: 1.06 ± 0.24 %ID/g | tissue uptake at 4 h [3, 5]: 0.63 ± 0.22 %ID/g | tissue uptake at 1 h [3, 6]: 0.24 ± 0.08 %ID/g | tissue uptake at 4 h [3, 6]: 0.04 ± 0.02 %ID/g | tissue uptake at 12 h [3, 6]: 0.04 ± 0.01 %ID/g | tissue uptake at 24 h [3, 6]: 0.03 %ID/g | tissue uptake at 1 h [3, 7]: 0.45 ± 0.14 %ID/g | tissue uptake at 4 h [3, 7]: 0.28 ± 0.11 %ID/g | tissue uptake at 24 h [3, 7]: 0.06 ± 0.01 %ID/g | tissue uptake at 1 h [3, 8]: 0.17 ± 0.03 %ID/g | tissue uptake at 4 h [3, 8]: 0.07 ± 0.02 %ID/g | tissue uptake at 12 h [3, 8]: 0.09 ± 0.02 %ID/g | tissue uptake at 24 h [3, 8]: 0.07 ± 0.02 %ID/g | tissue uptake at 1 h [3, 9]: 0.96 ± 0.12 %ID/g | tissue uptake at 4 h [3, 9]: 0.69 ± 0.19 %ID/g | tissue uptake at 1 h [3, 10]: 17.2 ± 4.46 %ID/g | tissue uptake at 4 h [3, 10]: 7.64 ± 3.85 %ID/g | tissue uptake at 1 h [3, 11]: 0.35 ± 0.08 %ID/g | tissue uptake at 4 h [3, 11]: 0.28 ± 0.08 %ID/g | tissue uptake at 1 h [3, 12]: 1.07 ± 0.17 %ID/g | tissue uptake at 4 h [3, 12]: 0.5 ± 0.24 %ID/g | tissue uptake at 1 h [3, 13]: 0.16 ± 0.05 %ID/g | tissue uptake at 4 h [3, 13]: 0.07 ± 0.03 %ID/g | tissue uptake at 12 h [3, 13]: 0.02 ± 0.01 %ID/g | tissue uptake at 24 h [3, 13]: 0.01 %ID/g | tissue uptake at 1 h [3, 14]: 2.71 ± 0.4 %ID/g | tissue uptake at 4 h [3, 14]: 0.6 ± 0.19 %ID/g | tissue uptake at 24 h [3, 14]: 0.07 ± 0.01 %ID/g | tissue uptake at 1 h [3, 15]: 3.39 ± 1.11 %ID/g | tissue uptake at 4 h [3, 15]: 2.71 ± 1.84 %ID/g | tissue uptake at 1 h [3, 16]: 0.23 ± 0.04 %ID/g | tissue uptake at 4 h [3, 16]: 0.1 ± 0.03 %ID/g | tissue uptake at 12 h [3, 16]: 0.1 ± 0.02 %ID/g | tissue uptake at 24 h [3, 16]: 0.07 ± 0.02 %ID/g | tissue uptake at 1 h [3, 17]: 2.62 ± 0.48 %ID/g | tissue uptake at 4 h [3, 17]: 1.35 ± 0.26 %ID/g | blood clearance ([3]; healthy mice, 1 to 24 hours after injection): very fast blood clearance
Compound: C[C@@H](O)[C@@H]1NC(=O)[C@H](CCCCN)NC(=O)[C@@H](Cc2c[nH]c3ccccc23)NC(=O)[C@H](Cc2ccc(O)cc2)NC(=O)[C@@H](NC(=O)[C@@H](Cc2ccccc2)NC(=O)CCC(C(=O)O)N2CCN(CC(=O)O)CCN(CC(=O)O)CC2)CSSC[C@@H](C(=O)N[C@H](CO)[C@@H](C)O)NC1=O (single isomer, unassigned) [[^61/^64Cu]Cu-NODAGA-TOC, metal not drawn]

tissue uptake at 1 h ([4]; Biodistribution HEK-SST2): 8.88 ± 3.19 %ID/g | tissue uptake at 1 h ([4]; Biodistribution Kidney): 12.5 ± 2.25 %ID/g
Compound: C[C@@H](O)[C@@H]1NC(=O)[C@H](CCCCN)NC(=O)[C@@H](Cc2c[nH]c3ccccc23)NC(=O)[C@H](Cc2ccc(O)cc2)NC(=O)[C@@H](NC(=O)[C@@H](Cc2ccccc2)NC(=O)CCC(C(=O)O)N2CCN(CC(=O)O)CCN(CC(=O)O)CC2)CSSC[C@@H](C(=O)N[C@H](CO)[C@@H](C)O)NC1=O (single isomer, unassigned) [[^61Cu]Cu-NODAGA-TOC, metal not drawn]
